Experimental data reported in US7037901B1, “Radiosensitization by indolocarbazole derivatives” (priority 2001, dated 2006).

Columns and labels:
[1] = tested on: TOP1 mutant DC3F/C10 cells; experiment: Radiosensitization in DC3F/C10 cells (clonogenic survival with radiation); type: cell-based, Chinese hamster; details: DC3F/C10 cells
Experimental: (§1) Clonogenic Survival Assay. […] 18–24 h prior to experimental studies.
(§2) Colonies consisting of >50 cells were counted.
(§3) Irradiation of Cells. Drug-treated and control cells in medium were irradiated using a cobalt-60 source (Eldorado 8; Theratronics, Canada) at a dose rate of 105 cGy/min.
(§4) Analysis of Survival Curves. Survival curves were corrected for cytotoxicity induced by drug alone treatment. Sensitization enhancement ratios (SERs) and standard deviations for survival curves were determined at 10% cell survival. Each SER was calculated by dividing the radiation dose to induce 10% cell survival in the absence of radiosensitizer with the radiation dose to induce 10% cell survival in the presence of radiosensitizer.

[2] = tested on: human breast cancer MCF-7 cells; experiment: Clonogenic survival assay, drug alone (cytotoxicity) in MCF-7 cells; type: cell-based; details: 1 μM camptothecin for 1 h, read graphically from FIG. 2
Experimental: as §1, §2

[3] = tested on: camptothecin-resistant, TOP1 mutant DC3F/C-10 cells
Experimental: Clonogenic Survival Assay. For a typical clonogenic survival experiment, stock cultures of exponentially growing cells were trypsinized, rinsed, and plated (5×10^5 cells per dish for DC3F and DC3F/C-10 cells; 1×10^6 cells for MCF-7 cells) into 100-mm petri dishes and incubated at 37° C. 18–24 h prior to experimental studies.
Following various experimental protocols with drug incubation and irradiation, cells were trypsinized, rinsed, counted, and plated for […] colony formation. Depending on the anticipated survival level, 10^2 to 10^5 cells were plated per dose point. When higher cell numbers were plated, large petri dishes were used to avoid possible cell-density effect (100-mm instead of 60-mm petri dishes for cell number≧5×10^4). Depending on the treatment protocols, an equivalent amount of DMSO was added into each of the control radiation alone dishes (final DMSO concentration <0.1%).
Following seven to fourteen days of incubation, colonies were fixed with methanol/acetic acid (3:1), stained with crystal violet. Colonies consisting of >50 cells were counted. All survival points were done in triplicate, and experiments were conducted a minimum of two times. Error bars shown in the figures represent standard deviations (SD) and are shown when larger than the symbol.
The DC3F/C-10 cell line was selected from the Chinese Hamster lung fibroblast DC3F cell line in the presence of 1 μM of camptothecin (Albright, N., Radiat. Res., 112:331–340 (1987), and Chen, Y. N., J. Biol. Chem., 265:10073–10080 (1990)). […] In an attempt to determine the importance of TOP1 in mediating the cytotoxic and radiosensitizing effects by INDO derivatives, clonogenic survival assays were performed in DC3F and DC3F/C10 cells.

[4] = tested on: human breast cancer MCF-7 cells; experiment: Clonogenic survival assay with radiation (radiosensitization) in MCF-7 cells; type: cell-based
Experimental: as §1, §2, §3, §4
The updated programs developed by Dr. N. Albright (San Rafael, Calif.) (Albright, N., Radiat. Res., 112:331–340 (1987)) were used for curve fitting for MCF-7 cells with the linear quadratic (LQ) and the single hit multi-target (SHMT) models. Both the LQ and SHMT models gave qualitatively good fits. The fit with the SHMT model was used for the present study.

[5] = molecular target: T1, covalent topoisomerase-DNA cross-links in CHO cells (Cricetulus griseus, UniProt Q07050, S505G); experiment: In vivo K+-SDS co-precipitation assay for protein-DNA cross-links; type: cell-based, Chinese hamster; details: FIG. 5
T1 construct: endogenous in cells; host or cells: Chinese hamster ovary CHO cells
T1 sequence (Q07050 2-767 S505G): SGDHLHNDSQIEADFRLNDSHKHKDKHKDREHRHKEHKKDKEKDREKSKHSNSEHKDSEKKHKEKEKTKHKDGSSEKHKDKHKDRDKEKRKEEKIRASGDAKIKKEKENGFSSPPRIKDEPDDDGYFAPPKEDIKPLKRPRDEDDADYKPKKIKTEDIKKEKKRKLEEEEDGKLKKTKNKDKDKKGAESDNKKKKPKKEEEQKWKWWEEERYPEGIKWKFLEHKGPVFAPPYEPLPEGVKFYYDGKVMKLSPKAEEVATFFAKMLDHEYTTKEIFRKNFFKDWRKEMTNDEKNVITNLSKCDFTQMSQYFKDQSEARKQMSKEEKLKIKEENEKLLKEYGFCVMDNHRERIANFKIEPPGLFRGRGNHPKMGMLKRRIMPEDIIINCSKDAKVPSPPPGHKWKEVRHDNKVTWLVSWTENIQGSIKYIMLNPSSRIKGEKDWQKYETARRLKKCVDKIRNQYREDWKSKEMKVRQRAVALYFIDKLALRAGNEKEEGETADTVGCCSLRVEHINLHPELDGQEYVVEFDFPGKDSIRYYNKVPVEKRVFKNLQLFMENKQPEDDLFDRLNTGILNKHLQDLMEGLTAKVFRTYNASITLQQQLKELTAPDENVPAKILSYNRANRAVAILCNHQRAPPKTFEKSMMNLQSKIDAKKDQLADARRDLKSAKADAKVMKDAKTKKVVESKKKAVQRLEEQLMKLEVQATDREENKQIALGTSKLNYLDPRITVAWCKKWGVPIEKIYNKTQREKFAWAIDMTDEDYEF
Description: In vivo K^+-SDS co-precipitation assay for protein-DNA cross-links. The K^+-SDS co-precipitation assay as described previously (Chen, Y. N., et al., J. Biol. Chem., 265:10073–10080 (1990)) was used to quantify the formation of covalent topoisomerase-DNA cross-links in drug-treated cells.
Briefly, the DNA in logarithmic growing Chinese hamster CHO cells was overnight-labeled in medium containing 1 μCi/ml of [mehtyl-^3H] thymidine. These cells were then trypsinized and diluted in fresh medium before aliquoted into a 24-well plate. After overnight incubation, the labeled cells were treated with various concentrations of drugs for 30 min, washed with phosphate-buffered saline once, and lysed by adding 1 ml of prewarmed lysis solution (1.25% SDS, 5 mM EDTA, 0.4 mg/ml salmon sperm DNA, pH 8.0, 65° C.).
Following shearing chromosomal DNA by passing the lysate through a 19-gauge needle, the sample was transferred to a tube containing 0.25 ml of 325 mM KCl. The sample was vortexed vigorously for 10 s, cooled on ice for 10 min and centrifuged at 3000 rpm for 10 min at 4° C.
The pellet was then resuspended in 1 ml of a wash solution (100 mM KCl, 1 mM EDTA, 0.1 mg/ml salmon sperm DNA, 10 mM Tris-HCl, pH 8.0) and placed at 65° C. for 10 min with occasional mixing. The sample was again cooled on ice for 10 min and centrifuged at 3000 rpm for 10 min at 4° C. After the pellet from each sample was washed again, the pellet was finally resuspended in 0.2 ml of 65° C. water and added to 5 ml of scintillation fluid to determine radioactive counts.
The background precipitable counts were obtained by treating the lysate with proteinase K (400 μg/ml) at 65° C. for 2 h. Data are arithmetic means (±SD) of three determinations, and the background counts have been subtracted.

DC3F cells = experiment: Radiosensitization in DC3F cells (clonogenic survival with radiation); type: cell-based, Chinese hamster
Experimental: as §1, §2, §3, §4

purified human TOP1 = molecular target: T2, purified human TOP1 (Homo sapiens, UniProt P11387); experiment: In vitro drug-stimulated TOP1 cleavage assay (pHOT1 plasmid nicking); type: biochemical; details: purified human TOP1; FIG. 4, 4C
T2 construct: purchased TopoGEN, Inc. (Columbus, Ohio)
T2 sequence (P11387 1-765): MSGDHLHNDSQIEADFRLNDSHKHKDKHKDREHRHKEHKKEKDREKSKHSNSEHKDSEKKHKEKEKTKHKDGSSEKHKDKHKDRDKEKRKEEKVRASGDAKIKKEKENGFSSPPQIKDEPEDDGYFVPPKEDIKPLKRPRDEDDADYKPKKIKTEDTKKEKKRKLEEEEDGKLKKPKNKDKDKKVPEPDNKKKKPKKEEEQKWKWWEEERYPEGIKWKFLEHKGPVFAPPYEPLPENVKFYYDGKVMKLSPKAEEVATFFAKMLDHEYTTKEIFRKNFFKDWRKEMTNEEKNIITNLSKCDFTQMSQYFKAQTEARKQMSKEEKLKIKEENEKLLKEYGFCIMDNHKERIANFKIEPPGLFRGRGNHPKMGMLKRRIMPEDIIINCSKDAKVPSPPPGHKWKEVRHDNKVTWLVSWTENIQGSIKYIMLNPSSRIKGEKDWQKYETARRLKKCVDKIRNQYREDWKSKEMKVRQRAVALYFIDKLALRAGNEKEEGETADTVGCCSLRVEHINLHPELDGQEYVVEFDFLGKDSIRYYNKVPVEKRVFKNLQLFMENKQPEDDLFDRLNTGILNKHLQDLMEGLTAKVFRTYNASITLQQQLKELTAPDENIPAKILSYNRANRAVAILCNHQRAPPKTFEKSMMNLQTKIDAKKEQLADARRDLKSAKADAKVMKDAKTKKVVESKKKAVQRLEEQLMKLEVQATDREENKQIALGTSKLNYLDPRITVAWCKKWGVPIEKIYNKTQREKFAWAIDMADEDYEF
Experimental: In vitro drug-stimulated TOP1 cleavage assay. Drug-stimulated DNA cleavage assay using purified human TOP1 was performed according to the protocol provided by TopoGEN Inc. (Columbus, Ohio) with modifications.
Briefly, supercoiled pHOT1 plasmid DNA (0.2 μg) was incubated with 1 unit of human TOP1 in cleavage buffer (50 mM Tris, pH 7.8, 50 mM KCl, 10 mM MgCl2, 1 mM dithiothreitol, 1 mM EDTA) in the presence of varying concentrations of the drug under study. Following a 30-min incubation at 37° C., the reactions were terminated by adding SDS to 1.0% and proteinase K to 200 μg/ml. The proteinase K treatment continued at 37° C. for 1 h. The sample was then mixed with loading dye (containing sucrose and bromphenol blue) and separated in 1% agarose gel in 0.08 M Tris-phosphate, 0.008 M EDTA, pH 8.0 buffer at room temperature for 16 h.
The gel was initially stained with ethidium bromide ([…]), washed and photographed under UV light. In order to separate the “nicked” from the “relaxed” DNA population, the gel was further run for 4 h in the presence of ethidium bromide before being photographed again under UV light. The photograph was scanned and the intensity of the nicked DNA of each lane was measured using the ImageJ program obtained from the National Institutes of Health (web site: rsb.info.nih.gov/ij/). The intensity of the nicked band of each lane was plotted after the background intensity (pHOT1+TOP1 lane) was subtracted.

Structure (SMILES) | Radiation Dose (Gy) at 10% Survival ([1]; 1.0 μM) [Gy] | SER ([1]; 1.0 μM) | Radiation Dose (Gy) at 10% Survival ([1]; 10 μM) [Gy] | SER ([1]; 10 μM) | Percent of cell survival without RT [2] [%] | Relative resistance of DC3F/C10 cells to the cytotoxic effect ([3]; LD50 of DC3F/C10 divided by LD50 of DC3F, camptothecin 30-min treatment) | RR (relative resistance) ([3]; LD50 of DC3F/C-10 cells divided by LD50 of DC3F cells) | ER (SER per footnote c, sensitization enhancement ratio) ([4]; 1 μM camptothecin 1 h before radiation, at 10% survival) | Dq (width of the shoulder of the radiation survival curve) ([4]; SHMT model fit, FIG. 3B) | RT dose (Gy) at 10% survival ([4]; pre-treated 1 μM camptothecin 1 h, rinsed, then radiation) [Gy] | Potency in stabilizing DNA-protein crosslinks (rank order) [5] | Radiation Dose (Gy) at 10% Survival (DC3F cells; 0.1 μM) [Gy] | SER (DC3F cells; 0.1 μM) | Radiation Dose (Gy) at 10% Survival (DC3F cells; 1.0 μM) [Gy] | SER (DC3F cells; 1.0 μM) | Potency in inducing TOP1-mediated DNA cleavage (nicking of pHOT1) (purified human TOP1)
CC[C@@]1(O)C(=O)OCc2c1cc1n(c2=O)Cc2cc3ccccc3nc2-1 [Camptothecin, Camptothecin lactone, reference compound] | 5.2 | 1.0 | 4.6 | 1.1 | 72 ± 5 | more than 12 fold | >12 | 1.4 | drastically reduced | 5.0 | most potent | 4.3 | 1.4 | 3.9 | 1.5 | –
COc1cc([C@@H]2c3cc4c(cc3[C@@H](O[C@@H]3O[C@@H]5CO[C@@H](C)O[C@H]5[C@H](O)[C@H]3O)[C@H]3COC(=O)[C@H]23)OCO4)cc(OC)c1O [etoposide, reference compound] | – | – | – | – | – | – | – | – | – | – | – | – | – | – | – | no activity in inducing TOP1-mediated nicking of DNA
